pIC50: −log10 of the molar value.
Key:
gp130 = biological target: T1, gp130 (Homo sapiens, UniProt P40189); assay: Drug Affinity Responsive Target Stability (DARTS) assay in SUM159 lysates; format: binding
T1 construct: endogenous in cells; host or cells: SUM159 human breast cancer cells (lysate)
Description: Human SUM159 breast cancer cells were lysed in cold radioimmunoprecipitation assay (RIPA) lysis buffer containing proteasome inhibitor cocktail and phosphatase inhibitor cocktail. Then lysates were incubated with escalating concentrations (10-1000 μM) of LLM418 or DMSO control at room temperature for 1 h. Proteolysis was followed by adding protease pronase solution at a ratio of 1 mg of pronase to 1000 mg (or 2000 mg) of lysate protein for 30 min, 20 min or 15 min at room temperature. To stop proteolysis, 4×SDS sample loading buffer was added at 1:3 ratio to each sample and boiled at 95° C. for 10 min. The resulted protein samples were separated by 8% SDS-PAGE gel and analyzed by western blotting. The DARTS assay is a method for studying the specific protein-ligand binding interactions. It is based on the principle that the target protein structure might be stabilized and become less susceptible to proteolysis by proteases upon drug binding [Lomenick B, Jung G, Wohlschlegel J, et al. Target identification using drug affinity responsive target stability (DARTS). Curr Protoc Chem Biol 2011, 3, 163-180; Lomenick B, Olsen R, Huang J. Identification of direct protein targets of small molecules. ACS Chem Biol. 2011, 6, 34-46]. It can be used to find the targeting protein of a small molecule by running SDS-gel without purifying any specific protein. […]

[1] = system: CT-1 induced STAT3 phosphorylation; assay: Western blot, CT-1 induced STAT3 phosphorylation in MCF7; format: cell-based, human; conditions: MCF7, 15 μM, time dependent
Description: (§1) Cells were harvested and lysed in cold radioimmunoprecipitation assay (RIPA) lysis buffer containing proteasome inhibitor cocktail and phosphatase inhibitor cocktail. The protein concentrations were determined using the BCA Protein Assay kit. After adding the loading buffer and boiling at 95° C. for 10 minutes, equivalent amounts of proteins were loaded on and separated by SDS-PAGE, and then were transferred to PVDF membranes. Membranes were probed with primary antibodies (1:1000) against phospho-STAT3 (Tyr705), STAT3, phospho-STAT1 (Tyr701), STAT1, phospho-STAT6 (Tyr 641), STAT6, and GAPDH, respectively, and horseradish peroxidase (HRP)-conjugated secondary antibody (1:10000) (Cell Signaling Technology, Beverly, Mass.). Membranes were analyzed using Enhanced Chemiluminescence Plus reagents and either scanned with the Storm Scanner (Amersham Pharmacia Biotech, Inc., Piscataway, N.J.) or imaged with ChemiDoc MP imaging system (Bio-Rad, Hercules, Calif.). […] The cells were harvested after 30 minutes and analyzed by Western blot.
(§2) MCF7 breast cancer cells were seeded in 10 cm plates (1 million cells per plate) and allowed to adhere overnight. […] The cells were harvested after 30 minutes and analyzed by western blotting.

[2] = system: CNTF induced STAT3 phosphorylation; assay: Western blot, CNTF induced STAT3 phosphorylation in MCF7; format: cell-based, human; conditions: MCF7, 15 μM, 2, 3 and 4 hours
Description: as §1, §2

[3] = system: Capan-1 pancreatic cancer cell line; assay: MTT cell viability assay, Capan-1; format: cell-based; conditions: Homo sapiens
Description: Human breast cancer cell lines MCF7, MDA-MB-231 and SUM159 were maintained in Dulbecco's modified Eagle medium (DMEM). Human pancreatic cancer cell line BxPC-3 was maintained in RPMI 1640 medium. Human pancreatic cancer cell line Capan-1 was maintained in Iscove's Modified Dulbecco's Medium (IMEM). All media were supplemented with 10% FBS and 1% penicillin/streptomycin, and cells were incubated in a humidified 37° C. incubator with 5% CO2. PE/CA-PJ49 cell line was purchased from external sources and maintained according to manufacturer's protocol.
Cell viability was evaluated by using the MTT assay in triple replicates in one experiment and repeated for three times. Cancer cells were seeded in 96-well plates at a density of 3,000 cells per well. The cells were incubated at 37° C. for a period of 24 hours. Escalating concentrations of IL-6/gp130 inhibitors were added in triplicate to the plates in the presence of 10% FBS. After incubation for 48 or 72 hours, a stock solution of MTT (0.5 mg/ml) was then added to each well containing the treated cells, followed by incubation at 37° C. for 3 h. After removal of medium, the MTT dye was dissolved with spectrophotometric grade DMSO and the absorbance was read at 570 nm. The IC50 value is determined by interpolation based on the absorbance value halfway between positive and negative controls. […]

[4] = system: IL-11 induced STAT3 phosphorylation; assay: Western blot, IL-11 induced STAT3 phosphorylation in MCF7; format: cell-based, human; conditions: MCF7, 15 μM, 2, 3 and 4 hours
Description: as §1, §2

[5] = system: SUM159 breast cancer cell line; assay: MTT cell viability assay, SUM159; format: cell-based, human; conditions: Homo sapiens, SUM159, 48 h, SUM159 (high IL-6), 0% FBS medium

T1 sequence (P40189 23-918): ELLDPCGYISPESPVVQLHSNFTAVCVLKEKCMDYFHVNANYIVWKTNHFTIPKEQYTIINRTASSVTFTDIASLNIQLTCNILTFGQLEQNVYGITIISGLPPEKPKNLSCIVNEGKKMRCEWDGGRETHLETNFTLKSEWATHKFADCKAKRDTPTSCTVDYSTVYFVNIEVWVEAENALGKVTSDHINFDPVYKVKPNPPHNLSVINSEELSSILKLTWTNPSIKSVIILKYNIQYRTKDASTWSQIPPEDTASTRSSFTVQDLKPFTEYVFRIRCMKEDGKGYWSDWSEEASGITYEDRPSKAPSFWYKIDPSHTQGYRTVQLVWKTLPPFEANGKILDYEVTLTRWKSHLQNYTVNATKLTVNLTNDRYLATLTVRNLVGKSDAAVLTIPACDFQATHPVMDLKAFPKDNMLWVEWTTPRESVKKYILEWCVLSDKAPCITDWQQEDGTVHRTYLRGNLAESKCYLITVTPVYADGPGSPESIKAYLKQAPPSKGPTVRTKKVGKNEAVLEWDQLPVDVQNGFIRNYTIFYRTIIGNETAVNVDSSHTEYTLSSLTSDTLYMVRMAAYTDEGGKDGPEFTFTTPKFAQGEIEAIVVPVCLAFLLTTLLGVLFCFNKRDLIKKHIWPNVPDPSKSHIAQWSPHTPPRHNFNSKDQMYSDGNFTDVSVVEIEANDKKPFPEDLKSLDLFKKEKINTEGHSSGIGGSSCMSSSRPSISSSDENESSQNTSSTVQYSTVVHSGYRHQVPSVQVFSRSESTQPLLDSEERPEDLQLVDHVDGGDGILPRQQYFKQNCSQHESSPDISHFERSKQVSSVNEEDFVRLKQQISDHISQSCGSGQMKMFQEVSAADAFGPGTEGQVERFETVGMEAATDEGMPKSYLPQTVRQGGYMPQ

| abundance of gp130 compared with the no drug control (gp130; 100 and 1000 μM) | abundance of the gp130 band (protection from proteolysis) (gp130; SUM159 lysates, 10-1000 μM, pronase:protein=1:2000, 15 min) | pIC50 [3] | pIC50 [5] | SMILES | CT-1 induced STAT3 phosphorylation [1] | CNTF induced STAT3 phosphorylation [2] | inhibition of IL-11 induced STAT3 phosphorylation [4] |
| --- | --- | --- | --- | --- | --- | --- | --- |
| increased significantly | increased with an increasing dose | – | – | O=C(Nc1ccccc1-c1ccn[nH]1)c1ccc(OCCN2CCCCC2)cc1 [LLM418, N-(2-(1H-pyrazol-5-yl)phenyl)-4-(2-(piperidin-1-yl)ethoxy)benzamide] | – | – | – |
| – | – | 4.45 | 7.40 | O=C(Nc1cc(F)ccc1-n1cccc1)c1ccc(OCCCN2CCCCC2)cc1 [LLM4, N-(5-fluoro-2-(1H-pyrrol-1-yl)phenyl)-4-(3-(piperidin-1-yl)propoxy)benzamide] | minor influence | remain intact | also inhibited IL-11 induced STAT3 phosphorylation |
